Results from PubChem BioAssay AID624482 (The Scripps Research Institute Molecular Screening Center, 2012).
Active and inactive are the calls of the source.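 The calls were made as follows: active = inhibition of the enzyme prolyl endopeptidase above 20%; inactive = inhibition at or below 20%.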

Target: Prolyl endopeptidase (Mus musculus) (UniProt Q9QUR6)
Assay: prolyl endopeptidase enzyme blockade – biochemical, fluorescence, mouse, assay provider data, selectivity assay for PREPL inhibitor project (AID 624482)
Conditions: recombinant PEP, Z-Gly-Pro-AMC fluorescence; at 20 µM; stronger effect = higher value

Sequence of Prolyl endopeptidase (Mus musculus) (Q9QUR6 whole entry, looked up): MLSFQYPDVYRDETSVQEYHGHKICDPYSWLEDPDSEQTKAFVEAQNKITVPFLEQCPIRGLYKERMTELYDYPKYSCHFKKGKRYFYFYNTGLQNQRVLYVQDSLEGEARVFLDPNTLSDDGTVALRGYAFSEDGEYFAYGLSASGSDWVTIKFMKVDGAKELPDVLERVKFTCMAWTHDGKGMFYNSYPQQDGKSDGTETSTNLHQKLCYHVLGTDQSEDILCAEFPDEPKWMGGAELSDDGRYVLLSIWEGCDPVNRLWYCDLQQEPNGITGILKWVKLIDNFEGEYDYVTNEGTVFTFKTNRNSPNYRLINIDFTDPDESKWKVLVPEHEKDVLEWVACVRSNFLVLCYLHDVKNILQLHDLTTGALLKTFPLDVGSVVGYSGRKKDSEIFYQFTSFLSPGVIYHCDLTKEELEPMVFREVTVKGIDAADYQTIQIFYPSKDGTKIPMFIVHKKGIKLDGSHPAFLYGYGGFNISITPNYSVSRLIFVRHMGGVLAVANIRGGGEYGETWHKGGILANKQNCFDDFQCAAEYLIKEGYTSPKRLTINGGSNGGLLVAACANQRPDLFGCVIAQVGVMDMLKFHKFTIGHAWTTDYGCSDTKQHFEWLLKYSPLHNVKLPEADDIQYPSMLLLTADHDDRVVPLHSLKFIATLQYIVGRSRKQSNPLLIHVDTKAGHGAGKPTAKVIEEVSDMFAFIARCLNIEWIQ

COc1cc2nc(Nc3ccc(C)c(C)c3)nc(N)c2cc1OC
inhibition: 46%

O=C(Nc1ccc2c(c1)OCCO2)c1cccc2nc3ccccc3nc12
inhibition: -26% (inactive)

CCOc1ccc(CCNC(=O)c2ccc3c(=O)[nH]c4c(C(=O)NC(C)C)sc(=S)n4c3c2)cc1
inhibition: -29% (inactive)

N#Cc1c2c(c(-c3ccccc3)[nH]c1=O)CCCC2
inhibition: -13% (inactive)

CC(C)Cc1[nH]c(=O)c(C#N)c2c1CCC2
inhibition: -17% (inactive)
